Assay results taken from US9765105B2, “Macrolide compound” (Pulike Biological Engineering, Inc., priority 2013, dated 2017).

Columns and labels:
Assay in all cases: in vitro susceptibility, MIC by mini broth dilution
Format in all cases: cell-based
[1] = test system: Pasteurella multocida CVCC399; details: strain CVCC399
Procedure, shortened: (§1)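 Read-out is the minimum inhibitory concentration, measured by mini broth dilution following the US NCCLS approved standard, with 11 two-fold compound dilutions in DMSO and a 1:200-diluted inoculum.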

[2] = test system: Actinobacillus pleuropneumoniae CVCC262; details: strain CVCC262
Procedure, shortened: as §1

[3] = test system: Haemophilus parasuis
Procedure, shortened: as §1

[4] = test system: Streptococcus equines CVCC556; details: strain CVCC556
Procedure, shortened: as §1

[5] = test system: Staphylococcus aureus CVCC26003; details: strain CVCC26003
Procedure, shortened: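 S. aureus CVCC26003 was revived and subcultured twice, 20 h each at 35° C, on solid medium, then diluted 1:200 in CAMHB liquid medium. Compounds received an 11-step two-fold DMSO dilution in parallel duplicate rows. MIC was read by mini broth dilution per NCCLS guidance.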

Row | Structure (SMILES) | MIC values, Pasteurella multocida CVCC399 [1] [ug/mi] | MIC values, Actinobacillus pleuropneumoniae CVCC262 [2] [ug/mi] | MIC values, Haemophilus parasuis [3] [ug/mi] | MIC values, Streptococcus equines CVCC556 [4] [ug/mi] | MIC values, Staphylococcus aureus CVCC26003 [5] [ug/mi]
1 | CCCN1C[C@H](C)[C@@H](O)[C@](C)(O)[C@@H](CC)OC(=O)[C@H](C)[C@@H](O[C@H]2C[C@@](C)(OC)[C@](O)(CNc3nc(Cl)cc(Cl)n3)[C@H](C)O2)[C@H](C)[C@@H](O[C@@H]2O[C@H](C)C[C@H](N(C)C)[C@H]2O)[C@](C)(O)C[C@H]1C [syzx-202] | 2 | 2 | 4 | 0.25 | 2
2 | CCCN1C[C@H](C)[C@@H](O)[C@](C)(O)[C@@H](CC)OC(=O)[C@H](C)[C@@H](O[C@H]2C[C@@](C)(OC)[C@](O)(CNC3CCCCCC3)[C@H](C)O2)[C@H](C)[C@@H](O[C@@H]2O[C@H](C)C[C@H](N(C)C)[C@H]2O)[C@](C)(O)C[C@H]1C [syzx-203] | 0.25 | 1 | 0.5 | 1 | 1
3 | CCCN1C[C@H](C)[C@@H](O)[C@](C)(O)[C@@H](CC)OC(=O)[C@H](C)[C@@H](O[C@H]2C[C@@](C)(OC)[C@](O)(CN3CCOCC3)[C@H](C)O2)[C@H](C)[C@@H](O[C@@H]2O[C@H](C)C[C@H](N(C)C)[C@H]2O)[C@](C)(O)C[C@H]1C [syzx-204] | 4 | 4 | 4 | 0.5 | 4
4 | CCCN1C[C@H](C)[C@@H](O)[C@](C)(O)[C@@H](CC)OC(=O)[C@H](C)[C@@H](O[C@H]2C[C@@](C)(OC)[C@](O)(CNCCCC(OC)OC)[C@H](C)O2)[C@H](C)[C@@H](O[C@@H]2O[C@H](C)C[C@H](N(C)C)[C@H]2O)[C@](C)(O)C[C@H]1C [syzx-205] | 4 | 4 | 4 | 0.5 | 4
5 | CCCN1C[C@H](C)[C@@H](O)[C@](C)(O)[C@@H](CC)OC(=O)[C@H](C)[C@@H](O[C@H]2C[C@@](C)(OC)[C@](O)(CNN3CCCCC3)[C@H](C)O2)[C@H](C)[C@@H](O[C@@H]2O[C@H](C)C[C@H](N(C)C)[C@H]2O)[C@](C)(O)C[C@H]1C [syzx-206] | 0.5 | 0.25 | 0.25 | 0.25 | 0.5
6 | CCCN1C[C@H](C)[C@@H](O)[C@](C)(O)[C@@H](CC)OC(=O)[C@H](C)[C@@H](O[C@H]2C[C@@](C)(OC)[C@](O)(CNc3ccc(Cl)nc3)[C@H](C)O2)[C@H](C)[C@@H](O[C@@H]2O[C@H](C)C[C@H](N(C)C)[C@H]2O)[C@](C)(O)C[C@H]1C [syzx-208] | 4 | 4 | 4 | 0.5 | 4
7 | CCCN1C[C@H](C)[C@@H](O)[C@](C)(O)[C@@H](CC)OC(=O)[C@H](C)[C@@H](O[C@H]2C[C@@](C)(OC)[C@](O)(CN3CCCC3)[C@H](C)O2)[C@H](C)[C@@H](O[C@@H]2O[C@H](C)C[C@H](N(C)C)[C@H]2O)[C@](C)(O)C[C@H]1C [syzx-209] | 0.25 | 0.25 | 0.25 | 0.25 | 0.25
8 | CCCN1CC(C)C(O)C(C)(O)C(CC)OC(=O)C(C)C(OC2CC(C)(OC)C(O)(CNc3n[nH]c(S)n3)C(C)O2)C(C)C(OC2OC(C)CC(N(C)C)C2O)C(C)(O)CC1C (stereo not drawn) [syzx-210] | 4 | 0.5 | 0.5 | 0.25 | 2
9 | CCCN1C[C@H](C)[C@@H](O)[C@](C)(O)[C@@H](CC)OC(=O)[C@H](C)[C@@H](O[C@H]2C[C@@](C)(OC)[C@](O)(CNc3ccc(Cl)cn3)[C@H](C)O2)[C@H](C)[C@@H](O[C@@H]2O[C@H](C)C[C@H](N(C)C)[C@H]2O)[C@](C)(O)C[C@H]1C [syzx-211] | 8 | 4 | 4 | 0.5 | 2
10 | C=CCN(CC=C)C[C@]1(O)[C@H](C)O[C@@H](O[C@H]2[C@H](C)[C@@H](O[C@@H]3O[C@H](C)C[C@H](N(C)C)[C@H]3O)[C@](C)(O)C[C@@H](C)N(CCC)C[C@H](C)[C@@H](O)[C@](C)(O)[C@@H](CC)OC(=O)[C@@H]2C)C[C@@]1(C)OC [syzx-214] | 8 | 2 | 2 | 0.25 | 4
11 | CCCN1C[C@H](C)[C@@H](O)[C@](C)(O)[C@@H](CC)OC(=O)[C@H](C)[C@@H](O[C@H]2C[C@@](C)(OC)[C@](O)(CNC(=O)C(F)(F)F)[C@H](C)O2)[C@H](C)[C@@H](O[C@@H]2O[C@H](C)C[C@H](N(C)C)[C@H]2O)[C@](C)(O)C[C@H]1C [syzx-215] | 0.5 | 0.25 | 0.25 | 0.25 | 0.25
12 | CCCN1C[C@H](C)[C@@H](O)[C@](C)(O)[C@@H](CC)OC(=O)[C@H](C)[C@@H](O[C@H]2C[C@@](C)(OC)[C@](O)(CNC3CC3)[C@H](C)O2)[C@H](C)[C@@H](O[C@@H]2O[C@H](C)C[C@H](N(C)C)[C@H]2O)[C@](C)(O)C[C@H]1C [syzx-217] | 0.5 | 0.25 | 0.25 | 0.25 | 0.25
